Experiments:
human μ-opiate receptor = target: T1, human μ-opiate receptor (Homo sapiens, UniProt P35372); experiment: μ-opiate receptor binding assay with [3H] naloxone (WGA-SPA beads); conditions: 1 μmol/l test substance, 1 nmol/l [3H] naloxone, CHO-K1 cell membranes expressing human μ-opiate receptor
T1 construct: purchased NEN, Zaventem, Belgium RB-HOM; host or cells: CHO-K1 cells (membrane preparation)
Method in brief: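 CHO-K1 membranes expressing human μ-opiate receptor incubated 90 min at room temperature with 1 nmol/l [3H]naloxone and WGA-SPA beads in 50 mmol/l Tris-HCl with 0.05% azide, 0.06% BSA. Non-specific binding with 25 μmol/l naloxone; % inhibition at 1 μmol/l, or IC50 converted to Ki via Cheng-Prusoff.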

ORL1 receptor = target: T2, ORL1 receptor (Homo sapiens, UniProt P41146); experiment: ORL1 receptor binding assay with 3H-nociceptin/orphanin FQ (WGA-SPA beads); conditions: c=1 μM test substance; 0.5 nM 3H-nociceptin/orphanin FQ; membranes of recombinant CHO-ORL1 cells
T2 construct: expressed in transfected cells; host or cells: CHO (recombinant CHO-ORL1 cells), membranes
Method in brief: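 Radioligand displacement on membranes from recombinant CHO-ORL1 cells, 0.5 nM 3H-nociceptin/orphanin FQ, 20 μg membrane protein per batch in 50 mM Hepes pH 7.4, 10 mM MgCl2, 1 mM EDTA. Incubated 1 h at room temperature with WGA-SPA beads, scintillation read. Reported as Ki (nM) or % inhibition at 1 μM.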

T1 sequence (P35372 whole entry): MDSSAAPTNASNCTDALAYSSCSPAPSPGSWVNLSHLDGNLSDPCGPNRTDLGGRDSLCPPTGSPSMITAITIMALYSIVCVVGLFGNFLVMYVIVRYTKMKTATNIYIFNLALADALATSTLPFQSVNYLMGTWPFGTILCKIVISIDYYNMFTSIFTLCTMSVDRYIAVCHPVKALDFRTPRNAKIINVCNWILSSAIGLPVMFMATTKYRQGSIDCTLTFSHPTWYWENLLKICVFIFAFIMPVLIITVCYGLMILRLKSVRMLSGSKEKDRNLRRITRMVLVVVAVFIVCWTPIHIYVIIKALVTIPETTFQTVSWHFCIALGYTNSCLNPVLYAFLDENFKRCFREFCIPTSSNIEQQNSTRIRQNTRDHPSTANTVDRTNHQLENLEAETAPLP
T2 sequence (P41146 whole entry): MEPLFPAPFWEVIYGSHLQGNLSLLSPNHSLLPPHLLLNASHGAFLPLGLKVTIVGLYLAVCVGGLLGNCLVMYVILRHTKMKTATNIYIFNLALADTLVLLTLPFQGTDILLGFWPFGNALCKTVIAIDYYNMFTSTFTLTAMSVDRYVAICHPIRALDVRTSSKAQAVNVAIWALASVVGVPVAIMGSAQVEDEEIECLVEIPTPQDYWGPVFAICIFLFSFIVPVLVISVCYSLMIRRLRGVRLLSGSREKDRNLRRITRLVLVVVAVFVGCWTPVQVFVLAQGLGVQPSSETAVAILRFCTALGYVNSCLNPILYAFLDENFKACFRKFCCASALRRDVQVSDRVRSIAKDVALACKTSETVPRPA

Row | SMILES | inhibition at 1 µM (human μ-opiate receptor) [%] | inhibition at 1 µM (ORL1 receptor) [%] | % Inhibition (μ) at 1 μM (human μ-opiate receptor; 1 µM) [%] | % Inhibition (ORL1) at 1 μM (ORL1 receptor) [%]
1 | CCCCC1(N(C)C)CCN(CCN(C)C(=O)c2cc3cc(F)ccc3[nH]2)CC1 [Example 52, N-(2-(4-Butyl-4-(dimethylamino)piperidin-1-yl)ethyl)-5-fluoro-N-methyl-1H-indole-2-carboxamide] | 65 | 28 |  | 
2 | CN(C)C1(c2ccccc2)CCN(C(=O)C2CCCN(C(=O)c3c[nH]c4ccccc34)C2)CC1 (stereo not drawn) [Example 131, (1-(1H-indole-3-carbonyl)piperidin-3-yl)(4-(dimethylamino)-4-phenylpiperidin-1-yl)methanone] | 43 | 34 |  | 
3 | COc1ccc2[nH]cc(CN(C)CCN3CCC(c4ccccc4)(N(C)C)CC3)c2c1 [Example 192, 1-(2-(((5-methoxy-1H-indol-3-yl)methyl)(methyl)amino)ethyl)-N,N-dimethyl-4-phenylpiperidin-4-amine] |  |  | 96 | 76
4 | CN(C)C1(c2ccccc2)CCN(C(=O)C2CCCN(C(=O)c3ccc4ccn(C)c4c3)C2)CC1 (stereo not drawn) [Example 128, (4-(dimethylamino)-4-phenylpiperidin-1-yl)(1-(1-methyl-1H-indole-6-carbonyl)piperidin-3-yl) methanone] | 56 | 39 |  | 
5 | CN(C)C1(c2ccccc2)CCN(C(=O)C2CCCN(C(=O)c3cccc4c3ccn4C)C2)CC1 (stereo not drawn) [Example 130, (4-(dimethylamino)-4-phenylpiperidin-1-yl)(1-(1-methyl-1H-indole-4-carbonyl)piperidin-3-yl) methanone] | 51 | 36 |  | 
6 | CN(CCN1CCC(c2ccccc2)(N2CCCC2)CC1)C(=O)c1cc2cc(F)ccc2[nH]1 [Example 51, 5-Fluoro-N-methyl-N-(2-(4-phenyl-4-(pyrrolidin-1-yl)piperidin-1-yl)ethyl)-1H-indole-2-carboxamide] | 43 | 26 |  | 
7 | CN(CCCN1CCC(c2cccs2)(N(C)C)CC1)C(=O)c1cc2cc(F)ccc2[nH]1 [Example 15, N-(3-(4-(Dimethylamino)-4-(thiophen-2-yl)piperidin-1-yl)propyl)-5-fluoro-N-methyl-1H-indole-2-carboxamide] | 88 | 58 |  | 
8 | CN(C)C1(c2ccccc2)CCN(C(=O)CCNCc2ccc3[nH]ccc3c2)CC1 [Example 142, 3-((1H-indol-5-yl)methylamino)-1-(4-(dimethylamino)-4-phenylpiperidin-1-yl)propan-1-one] | 78 | 40 |  | 
9 | CN(C(=O)Cc1c[nH]c2cc(F)ccc12)C(C(=O)N1CCC(c2cccs2)(N(C)C)CC1)c1ccccc1 (stereo not drawn) [Example 95, N-(2-(4-(dimethylamino)-4-(thiophen-2-yl)piperidin-1-yl)-2-oxo-1-phenylethyl)-2-(6-fluoro-1H-indol-3-yl)-N-methylacetamide] | 81 | 82 |  | 
10 | CCCCC1(N(C)C)CCN(CCN(C)Cc2c[nH]c3ccccc23)CC1 [Example 138, 1-(2-(((1H-indol-3-yl)methyl)(methyl)amino)ethyl)-4-butyl-N,N-dimethylpiperidin-4-amine] | 81 | 12 |  | 
11 | CN(C)C1(c2ccccc2)CCN(C(=O)C2CCCN(Cc3c[nH]c4ccc(Br)cc34)C2)CC1 (stereo not drawn) [Example 155, (1-((5-bromo-1H-indol-3-yl)methyl)piperidin-3-yl)(4-(dimethylamino)-4-phenylpiperidin-1-yl) methanone] | 89 | 69 |  | 
12 | COc1ccc2[nH]c(C(=O)NCCC(=O)N3CCC(c4ccccc4)(N(C)C)CC3)cc2c1 [Example 129, N-(3-(4-(dimethylamino)-4-phenylpiperidin-1-yl)-3-oxopropyl)-5-methoxy-1H-indole-2-carboxamide] | 73 | 37 |  | 

— patent publication US9206156B2, “Substituted indole derivatives” (GRÜNENTHAL GMBH, priority 2008, dated 2015)
